Common to all, as to assay type: cell-based
In one experiment the test system is Enterovirus strain 71. Description: CPE inhibition in mammalian cell culture, EV71. The settings on record: for inhibition at 0.01 µM: EV71, Conc. 0.01 μM; for inhibition at 1 µM: EV71, Conc. 1.0 μM.
Experiment [1] has as its system coxsackie B virus strain 5. Description: CPE inhibition in mammalian cell culture, Cox-B5. The conditions noted are these: read-out: % inh.
A further experiment relates to Ljungan virus strain 012. Kind of experiment: CPE inhibition in mammalian cell culture, LV012. The conditions noted are these: Parechovirus B, read-out: % inh.; for inhibition at 10 µM: LV012, Conc. 10 μM.
The subject of a further experiment is Ljungan virus strain 145. Kind of experiment: CPE inhibition in mammalian cell culture, LV145. The settings on record: Parechovirus B; for inhibition at 10 µM: LV145, Conc. 10.0 μM.
The subject of experiment [2] is coxsackie B virus strain 3. Kind of experiment: CPE inhibition in mammalian cell culture, Cox-B3. The settings on record: read-out: % inh.
A further experiment deals with Enterovirus strain 30. Kind of experiment: CPE inhibition in mammalian cell culture, EV30.
Experiment [3] deals with coxsackie B virus strain 1. Description: CPE inhibition in mammalian cell culture, Cox-B1. The settings on record: read-out: % inh.

Take `COc1ccc(-c2c(C)nn3c(NCc4ccccc4)cc(C)nc23)cc1OC` [Ex. 40, N-benzyl-3-(3,4-dimethoxyphenyl)-2,5-dimethyl-pyrazolo[1,5-a]pyrimidin-7-amine]: the inhibition at 0.01 µM in the experiment with Enterovirus strain 71 came out at 100%.

In the experiment on Enterovirus strain 71 (EV71, Conc. 0.1 μM), `COc1ccc(-c2c(C)nn3c(NCc4ccc(S(N)(=O)=O)cc4)cc(C)nc23)cc1OC` [Ex. 97, 4-[[[3-(3,4-dimethoxyphenyl)-2,5-dimethyl-pyrazolo[1,5-a]pyrimidin-7-yl]amino]methyl]benzenesulfonamide] registered an inhibition at 0.1 µM of 94%.

On to `Cc1ccc(CNc2cc(C)nc3c(-c4ccc(O)c(O)c4)c(C)nn23)cc1` [Ex. 110, 4-[2,5-dimethyl-7-(p-tolylmethylamino)pyrazolo[1,5-a]pyrimidin-3-yl]benzene-1,2-diol], for which, in experiment [1], the inhibition at 1 µM amounted to 72%.

As for `COc1ccc(-c2c(C)nn3c(Nc4ccncc4)cc(C)nc23)cc1OC` [Ex. 74, 3-(3,4-dimethoxyphenyl)-2,5-dimethyl-N-(4-pyridyl)pyrazolo[1,5-a]pyrimidin-7-amine], the inhibition at 10 µM in the experiment with Ljungan virus strain 012 turned out to be 55%.

In turn, `COc1ccc(-c2c(C)nn3c(NCc4cc[n+]([O-])cc4)cc(C)nc23)cc1OC` [Ex. 83, 3-(3,4-dimethoxyphenyl)-2,5-dimethyl-N-[(1-oxidopyridin-1-ium-4-yl)methyl]pyrazolo[1,5-a]pyrimidin-7-amine] gave an inhibition at 0.01 µM in the experiment with Enterovirus strain 71 of 82%.

As to `COc1ccc(-c2c(C)nn3c(Nc4ncc(C)s4)cc(C)nc23)cc1OC` [Ex. 93, N-[3-(3,4-dimethoxyphenyl)-2,5-dimethyl-pyrazolo[1,5-a]pyrimidin-7-yl]-5-methyl-thiazol-2-amine], the inhibition at 100 µM in the experiment with Ljungan virus strain 012 (LV012, Conc. 100 μM) came out at 42%.

In the case of `Cc1cc(NCc2ccccc2)n2nc(C)c(-c3ccc(F)cc3)c2n1` [Ex. 13, N-benzyl-3-(4-fluorophenyl)-2,5-dimethyl-pyrazolo[1,5-a]pyrimidin-7-amine], the inhibition at 1 µM in the experiment on Enterovirus strain 71 worked out at 66%.

In the experiment with Enterovirus strain 71, `Cc1cc(NCc2cccnc2)n2nc(C)c(-c3ccc(Cl)cc3)c2n1` [Ex. 45, 3-(4-chlorophenyl)-2,5-dimethyl-N-(3-pyridylmethyl)pyrazolo[1,5-a]pyrimidin-7-amine] gave an inhibition at 1 µM of 100%.

As to `COc1ccc(-c2c(C)nn3c(NC4Cc5ccccc5C4)cc(C)nc23)cc1OC` [Ex. 91, 3-(3,4-dimethoxyphenyl)-N-indan-2-yl-2,5-dimethyl-pyrazolo[1,5-a]pyrimidin-7-amine], the inhibition at 1 µM in experiment [1] stood at 75%.

The compound `COc1ccc(-c2c(C)nn3c(Nc4ccc(C)c(Cl)c4)cc(C)nc23)cc1OC` [Ex. 55, N-(3-chloro-4-methyl-phenyl)-3-(3,4-dimethoxyphenyl)-2,5-dimethyl-pyrazolo[1,5-a]pyrimidin-7-amine] had an inhibition at 1 µM with Ljungan virus strain 145 (LV145, Conc. 1.0 μM) of 41%.

Consider `Cc1cc(NCc2ccc(F)cc2)n2nc(C)c(-c3ccc4c(c3)OCO4)c2n1` [Ex. 102, 3-(1,3-benzodioxol-5-yl)-N-[(4-fluorophenyl)methyl]-2,5-dimethyl-pyrazolo[1,5-a]pyrimidin-7-amine], for which the inhibition at 1 µM in experiment [2] is 100%.

Turning to `COc1ccc(-c2c(C)nn3c(NCCc4cccs4)cc(C)nc23)cc1OC` [Ex. 88, 3-(3,4-dimethoxyphenyl)-2,5-dimethyl-N-[2-(2-thienyl)ethyl]pyrazolo[1,5-a]pyrimidin-7-amine], in the experiment with Enterovirus strain 30 (EV30, Conc. 1.0 μM, read-out: % inh.), the inhibition at 1 µM worked out at 88%.

On to `COc1ccc(-c2c(C)nn3c(NCCc4ccccn4)cc(C)nc23)cc1OC` [Ex. 85, 3-(3,4-dimethoxyphenyl)-2,5-dimethyl-N-[2-(2-pyridyl)ethyl]pyrazolo[1,5-a]pyrimidin-7-amine], for which the inhibition at 1 µM in experiment [3] turned out to be 98%.

As for `COc1ccc(-c2c(C)nn3c(Nc4ccc(C)c(C)c4)cc(C)nc23)cc1OC` [Ex. 52, 3-(3,4-dimethoxyphenyl)-N-(3,4-dimethylphenyl)-2,5-dimethyl-pyrazolo[1,5-a]pyrimidin-7-amine], the inhibition at 10 µM in the experiment on Ljungan virus strain 145 was found to be 63%.

Regarding `COc1ccc(-c2c(C)nn3c(Nc4ccc(C(C)C)cc4)cc(C)nc23)cc1OC` [Ex. 60, 3-(3,4-dimethoxyphenyl)-N-(4-isopropylphenyl)-2,5-dimethyl-pyrazolo[1,5-a]pyrimidin-7-amine], the inhibition at 1 µM in the experiment with Enterovirus strain 71 came to 69%.

As for `COc1ccc(-c2c(C)nn3c(NCc4ccc(C(C)(C)C)cc4)cc(C)nc23)cc1OC` [Ex. 86, N-[(4-tert-butylphenyl)methyl]-3-(3,4-dimethoxyphenyl)-2,5-dimethyl-pyrazolo[1,5-a]pyrimidin-7-amine], in the experiment on Ljungan virus strain 012, the inhibition at 10 µM is 48%.

In the experiment on Ljungan virus strain 145, `COc1ccc(CCNc2cc(C)nc3c(-c4ccc(F)cc4)cnn23)cc1OC` [Ex. 19, N-[2-(3,4-dimethoxyphenyl)ethyl]-3-(4-fluorophenyl)-5-methyl-pyrazolo[1,5-a]pyrimidin-7-amine] showed an inhibition at 10 µM of 34%.

In the case of `Cc1cc(NC2CCCC2)n2nc(C)c(-c3ccc(F)cc3)c2n1` [Ex. 38, N-cyclopentyl-3-(4-fluorophenyl)-2,5-dimethyl-pyrazolo[1,5-a]pyrimidin-7-amine], the inhibition at 10 µM in the experiment with Ljungan virus strain 145 is 84%.

For `COc1ccc(-c2c(C)nn3c(NCc4ccc(C)cc4)cc(C)nc23)cc1F` [Ex. 108, 3-(3-fluoro-4-methoxy-phenyl)-2,5-dimethyl-N-(p-tolylmethyl)pyrazolo[1,5-a]pyrimidin-7-amine], in experiment [3], the inhibition at 1 µM is 100%.

In the case of `COc1ccc(-c2cnn3c(NCc4ccc(F)cc4)cc(C)nc23)cc1OC` [Ex. 99, 3-(3,4-dimethoxyphenyl)-N-[(4-fluorophenyl)methyl]-5-methyl-pyrazolo[1,5-a]pyrimidin-7-amine], the inhibition at 0.1 µM in experiment [2] amounted to 100%.

In the case of `COc1ccc(-c2c(C)nn3c(NCCc4ccccn4)cc(C)nc23)cc1` [Ex. 68, 3-(4-methoxyphenyl)-2,5-dimethyl-N-[2-(2-pyridyl)ethyl]pyrazolo[1,5-a]pyrimidin-7-amine], in the experiment on Ljungan virus strain 145, the inhibition at 10 µM is 86%.

For the compound `Cc1cc(NC(C)c2ccccc2)n2nc(C)c(-c3ccc(F)cc3)c2n1` (stereo not shown) [Ex. 17, 3-(4-fluorophenyl)-2,5-dimethyl-N-(1-phenylethyl)pyrazolo[1,5-a]pyrimidin-7-amine], in the experiment on Ljungan virus strain 145, the inhibition at 10 µM was 75%.

In the experiment with Ljungan virus strain 145, `COc1cccc(Nc2cc(C)nc3c(-c4ccc(OC)c(OC)c4)c(C)nn23)c1` [Ex. 61, 3-(3,4-dimethoxyphenyl)-N-(3-methoxyphenyl)-2,5-dimethyl-pyrazolo[1,5-a]pyrimidin-7-amine] came in with an inhibition at 10 µM of 85%.

As for `COc1cc(-c2c(C)nn3c(NCc4ccc(F)cc4)cc(C)nc23)cc(OC)c1OC` [Ex. 105, N-[(4-fluorophenyl)methyl]-2,5-dimethyl-3-(3,4,5-trimethoxyphenyl)pyrazolo[1,5-a]pyrimidin-7-amine], the inhibition at 10 µM with Enterovirus strain 30 (EV30, Conc. 10 μM, read-out: % inh.) worked out at 67%.

Regarding `Cc1cc(NCc2cccnc2)n2nc(C)c(-c3ccc(F)cc3)c2n1` [Ex. 36, 3-(4-fluorophenyl)-2,5-dimethyl-N-(3-pyridylmethyl)pyrazolo[1,5-a]pyrimidin-7-amine], the inhibition at 1 µM in experiment [1] turned out to be 97%.

Regarding `COc1ccc(-c2c(C)nn3c(NCc4ccc(S(C)(=O)=O)cc4)cc(C)nc23)cc1OC` [Ex. 84, 3-(3,4-dimethoxyphenyl)-2,5-dimethyl-N-[(4-methylsulfonylphenyl)methyl]pyrazolo[1,5-a]pyrimidin-7-amine], the inhibition at 0.1 µM in experiment [2] was 84%.

`Cc1ccc(-c2c(C)nn3c(NCc4cccnc4)cc(C)nc23)cc1` [Ex. 34, 2,5-dimethyl-3-(p-tolyl)-N-(3-pyridylmethyl)pyrazolo[1,5-a]pyrimidin-7-amine] displayed an inhibition at 1 µM in the experiment with Enterovirus strain 71 of 100%.

`COc1ccc(-c2c(C)nn3c(NCc4ccccn4)cc(C)nc23)cc1OC` [Ex. 35, 3-(3,4-dimethoxyphenyl)-2,5-dimethyl-N-(2-pyridylmethyl)pyrazolo[1,5-a]pyrimidin-7-amine] displayed an inhibition at 0.1 µM with Enterovirus strain 30 (EV30, Conc. 0.1 μM) of 88%.

`Cc1cc(NCc2ccc(F)cc2)n2nc(C)c(-c3ccc(F)c(F)c3)c2n1` [Ex. 106, 3-(3,4-difluorophenyl)-N-[(4-fluorophenyl)methyl]-2,5-dimethyl-pyrazolo[1,5-a]pyrimidin-7-amine] had an inhibition at 10 µM in the experiment on Ljungan virus strain 145 of 100%.

On to `COc1ccc(-c2c(C)nn3c(Nc4ccc(Br)cc4)cc(C)nc23)cc1OC` [Ex. 46, N-(4-bromophenyl)-3-(3,4-dimethoxyphenyl)-2,5-dimethyl-pyrazolo[1,5-a]pyrimidin-7-amine], for which the inhibition at 10 µM in the experiment with Ljungan virus strain 145 worked out at 92%.

On to `COc1ccc(-c2c(C)nn3c(NCc4ccc(N(C)C)cc4)cc(C)nc23)cc1OC` [Ex. 78, 3-(3,4-dimethoxyphenyl)-N-[(4-dimethylaminophenyl)methyl]-2,5-dimethyl-pyrazolo[1,5-a]pyrimidin-7-amine], for which, in experiment [3], the inhibition at 0.1 µM was 94%.

Regarding `CCc1nn2c(NCCc3ccc(OC)c(OC)c3)cc(C)nc2c1-c1ccccc1` [Ex. 30, N-[2-(3,4-dimethoxyphenyl)ethyl]-2-ethyl-5-methyl-3-phenyl-pyrazolo[1,5-a]pyrimidin-7-amine], the inhibition at 10 µM in the experiment on Ljungan virus strain 145 was 100%.

Take `COc1ccc(-c2c(C)nn3c(NCc4cccc5ccccc45)cc(C)nc23)cc1OC` [Ex. 96, 3-(3,4-dimethoxyphenyl)-2,5-dimethyl-N-(1-naphthylmethyl)pyrazolo[1,5-a]pyrimidin-7-amine]: in experiment [3], the inhibition at 0.1 µM was 100%.

As for `COc1ccc(-c2c(C)nn3c(Nc4cccc(Cl)c4)cc(C)nc23)cc1OC` [Ex. 51, N-(3-chlorophenyl)-3-(3,4-dimethoxyphenyl)-2,5-dimethyl-pyrazolo[1,5-a]pyrimidin-7-amine], the inhibition at 10 µM in the experiment on Ljungan virus strain 145 was 94%.

The values above are taken from patent US9963455B2, “Pyrazolo[1,5-a]pyrimidines as antiviral compounds” (Curovir AB, priority 2014, dated 2018).
